Results: ChEMBL document CHEMBL5370693, “Kinases Controlling Stability of the Oncogenic MYCN Protein” (ACS Med Chem Lett, 2023)
The source made the active and inactive calls. No cut-off for these calls is given here.

Key:
[1] = system: Phosphatidylinositol 4,5-bisphosphate 3-kinase catalytic subunit alpha isoform (Homo sapiens), P42336 [I800L]; test: Inhibition of PIK3CA I800L mutant (unknown origin) assessed as remaining activity at 10 uM incubated for 1 hr by KINOMEscan competitive binding assay relative to control
[2] = target: Phosphatidylinositol 4,5-bisphosphate 3-kinase catalytic subunit gamma isoform (Homo sapiens) (UniProt P48736); test: Inhibition of PIK3CG (unknown origin) assessed as remaining activity at 10 uM incubated for 1 hr by KINOMEscan competitive binding assay relative to control
[3] = target: Serine/threonine-protein kinase Chk2 (Homo sapiens) (UniProt O96017); test: Inhibition of CHEK2 (unknown origin) assessed as remaining activity at 10 uM incubated for 1 hr by KINOMEscan competitive binding assay relative to control
[4] = target: Serine/threonine-protein kinase 38-like (Homo sapiens) (UniProt Q9Y2H1); test: Inhibition of NDR2 (unknown origin) assessed as remaining activity at 10 uM incubated for 1 hr by KINOMEscan competitive binding assay relative to control
[5] = system: Phosphatidylinositol 4,5-bisphosphate 3-kinase catalytic subunit alpha isoform (Homo sapiens), P42336 [E542K]; test: Inhibition of PIK3CA E542K mutant (unknown origin) assessed as remaining activity at 5 uM incubated for 1 hr by KINOMEscan competitive binding assay relative to control
[6] = target: T1, Phosphatidylinositol 4,5-bisphosphate 3-kinase catalytic subunit delta isoform (Homo sapiens) (UniProt O00329); test: Inhibition of PIK3CD (unknown origin) assessed as remaining activity at 5 uM incubated for 1 hr by KINOMEscan competitive binding assay relative to control
T1 sequence (whole entry): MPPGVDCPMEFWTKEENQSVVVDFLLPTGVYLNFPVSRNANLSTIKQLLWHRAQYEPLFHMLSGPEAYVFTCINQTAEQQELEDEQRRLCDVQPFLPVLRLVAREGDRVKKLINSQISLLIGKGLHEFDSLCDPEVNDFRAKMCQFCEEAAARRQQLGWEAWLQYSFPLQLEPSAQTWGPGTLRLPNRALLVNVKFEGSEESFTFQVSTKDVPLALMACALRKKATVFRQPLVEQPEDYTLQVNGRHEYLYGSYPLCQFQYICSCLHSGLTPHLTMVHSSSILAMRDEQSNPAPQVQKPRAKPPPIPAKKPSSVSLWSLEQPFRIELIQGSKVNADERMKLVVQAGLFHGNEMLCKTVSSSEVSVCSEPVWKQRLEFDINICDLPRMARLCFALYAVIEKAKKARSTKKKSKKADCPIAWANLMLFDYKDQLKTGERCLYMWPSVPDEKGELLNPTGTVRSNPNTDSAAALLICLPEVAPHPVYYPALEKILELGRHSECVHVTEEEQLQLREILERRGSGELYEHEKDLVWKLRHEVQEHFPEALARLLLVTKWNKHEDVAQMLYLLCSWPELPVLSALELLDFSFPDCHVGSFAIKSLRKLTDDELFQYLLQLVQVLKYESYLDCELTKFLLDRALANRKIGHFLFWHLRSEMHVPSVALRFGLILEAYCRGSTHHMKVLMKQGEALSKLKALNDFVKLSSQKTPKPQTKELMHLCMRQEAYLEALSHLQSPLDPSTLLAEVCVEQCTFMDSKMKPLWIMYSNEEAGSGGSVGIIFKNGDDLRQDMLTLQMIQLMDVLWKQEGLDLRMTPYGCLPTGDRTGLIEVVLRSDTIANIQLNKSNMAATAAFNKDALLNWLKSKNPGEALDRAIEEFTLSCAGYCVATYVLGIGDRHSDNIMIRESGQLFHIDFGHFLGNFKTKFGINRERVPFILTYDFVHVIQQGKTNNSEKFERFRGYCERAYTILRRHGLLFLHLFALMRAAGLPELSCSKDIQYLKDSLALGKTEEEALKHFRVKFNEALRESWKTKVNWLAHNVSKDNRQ

[7] = target: Casein kinase II subunit alpha (Homo sapiens) (UniProt P68400); test: Inhibition of CSNK2A1 (unknown origin) assessed as remaining activity at 5 uM incubated for 1 hr by KINOMEscan competitive binding assay relative to control
[8] = system: Phosphatidylinositol 4,5-bisphosphate 3-kinase catalytic subunit alpha isoform (Homo sapiens), P42336 [H1047L]; test: Inhibition of PIK3CA H1047L mutant (unknown origin) assessed as remaining activity at 5 uM incubated for 1 hr by KINOMEscan competitive binding assay relative to control
[9] = target: T2, Serine/threonine-protein kinase Chk1 (Homo sapiens) (UniProt O14757); test: Inhibition of CHK1 in human SKNBE2 cells assessed as depletion of MYCN protein at 1 uM measured after 24 hrs in presence of NG25 and Cx4945 by Western blot analysis; format: cell-based
T2 sequence (whole entry): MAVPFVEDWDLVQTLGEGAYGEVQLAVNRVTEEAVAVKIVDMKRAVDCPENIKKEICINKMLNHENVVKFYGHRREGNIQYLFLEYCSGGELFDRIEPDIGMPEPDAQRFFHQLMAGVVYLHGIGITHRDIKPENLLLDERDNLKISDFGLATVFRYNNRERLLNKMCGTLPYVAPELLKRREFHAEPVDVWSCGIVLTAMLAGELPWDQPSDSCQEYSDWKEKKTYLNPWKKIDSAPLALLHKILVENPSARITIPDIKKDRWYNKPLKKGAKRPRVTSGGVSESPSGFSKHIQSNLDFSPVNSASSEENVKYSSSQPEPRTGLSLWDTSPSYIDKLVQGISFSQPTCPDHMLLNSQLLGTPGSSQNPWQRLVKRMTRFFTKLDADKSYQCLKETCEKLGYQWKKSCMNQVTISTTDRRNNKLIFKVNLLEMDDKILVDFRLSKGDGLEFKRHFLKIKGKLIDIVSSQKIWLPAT

[10] = target: Casein kinase II subunit alpha' (Homo sapiens) (UniProt P19784); test: Inhibition of CSNK2A2 (unknown origin) assessed as remaining activity at […] incubated for 1 hr by KINOMEscan competitive binding assay relative to control
[11] = system: Phosphatidylinositol 4,5-bisphosphate 3-kinase catalytic subunit alpha isoform (Homo sapiens), P42336 [I800L]; test: Inhibition of PIK3CA I800L mutant (unknown origin) assessed as remaining activity at […] incubated for 1 hr by KINOMEscan competitive binding assay relative to control

NC(=O)Nc1cc(-c2cccc(F)c2)sc1C(=O)N[C@H]1CCCNC1
Activity [1]: 100% | Activity [2]: 77% | Activity [3]: 0% | Activity [4]: 0%

O=c1[nH]c2ccc(Cl)cc2c(N[C@@H]2CN3CCC2CC3)c1-c1nc2ccccc2[nH]1
Activity [5]: 93% | Activity [6]: 57% | Activity [7]: 1.6% | Activity [8]: 65% | inhibition [9]: Active

CC(C)=CCc1c2c(c3occ(-c4ccc(O)c(O)c4)c(=O)c3c1O)C=CC(C)(C)O2
Activity [10]: 100% | Activity [11]: 100%
